pIC50: −log10 of the molar value.
How the values were obtained:
nitric oxide synthase = biological target: T1, nitric oxide synthase (Mus musculus, UniProt P29477); experiment: NOS inhibition assay: nitric oxide (nitrite, Greiss reagent) production from PAM 212 keratinocytes stimulated with gamma interferon; type: cell-based; settings: 100 U/ml gamma interferon, 72 hours, nitrite in medium
T1 sequence (P29477 1-1144): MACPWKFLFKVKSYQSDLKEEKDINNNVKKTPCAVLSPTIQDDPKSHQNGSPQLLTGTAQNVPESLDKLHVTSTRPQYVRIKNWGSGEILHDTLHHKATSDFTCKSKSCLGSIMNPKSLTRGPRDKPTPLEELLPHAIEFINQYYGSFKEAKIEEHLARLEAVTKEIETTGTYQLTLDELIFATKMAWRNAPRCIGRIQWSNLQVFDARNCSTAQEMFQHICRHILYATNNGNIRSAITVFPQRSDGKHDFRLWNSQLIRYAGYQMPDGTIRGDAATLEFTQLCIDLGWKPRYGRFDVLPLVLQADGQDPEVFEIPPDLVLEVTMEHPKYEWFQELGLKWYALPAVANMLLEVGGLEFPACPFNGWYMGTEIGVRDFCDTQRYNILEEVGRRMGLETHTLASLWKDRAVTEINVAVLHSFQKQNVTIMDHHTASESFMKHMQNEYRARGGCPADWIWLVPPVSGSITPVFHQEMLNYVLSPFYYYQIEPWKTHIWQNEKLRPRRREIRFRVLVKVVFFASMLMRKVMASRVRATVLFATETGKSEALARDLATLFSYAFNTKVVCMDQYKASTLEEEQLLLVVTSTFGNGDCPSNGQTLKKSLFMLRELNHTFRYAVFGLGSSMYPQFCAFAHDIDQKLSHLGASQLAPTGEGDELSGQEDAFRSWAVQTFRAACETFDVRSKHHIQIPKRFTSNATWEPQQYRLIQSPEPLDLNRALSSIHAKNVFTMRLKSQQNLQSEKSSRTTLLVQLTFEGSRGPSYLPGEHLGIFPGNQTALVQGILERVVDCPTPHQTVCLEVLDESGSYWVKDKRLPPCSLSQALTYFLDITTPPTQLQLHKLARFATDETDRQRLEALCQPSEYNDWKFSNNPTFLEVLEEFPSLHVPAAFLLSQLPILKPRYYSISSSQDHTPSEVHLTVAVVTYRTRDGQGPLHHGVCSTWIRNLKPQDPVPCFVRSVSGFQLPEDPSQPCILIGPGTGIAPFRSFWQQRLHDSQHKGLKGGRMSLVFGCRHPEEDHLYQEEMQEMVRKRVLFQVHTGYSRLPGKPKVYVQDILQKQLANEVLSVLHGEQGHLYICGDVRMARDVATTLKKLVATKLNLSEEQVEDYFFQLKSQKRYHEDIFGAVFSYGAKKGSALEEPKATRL

PAM 212 cells = experiment: Antiproliferative assay, PAM 212 tumor cells counted with Coulter counter; type: cell-based; settings: Mus musculus, PAM212, grown 4 to 5 days, read-out: IC50, concentration inhibiting cell growth by 50%
From the text: The ability of any one of the compounds according to the present invention to inhibit cell growth is recognized by the scientific community to be directly related to its therapeutic potential as an anticancer agent. This type of growth assay can be used with mammalian cancer cells as well as with pathogenic and non-pathogenic microbes, including, but not limited to, yeasts and bacteria. To assay these compounds for anticancer activity, tumor cells (PAM 212) grown in vitro in monolayer culture flasks were used. […] Triplicate wells on the plates were used to measure control growth and growth of the cells in the presence of each concentration of anticancer agent. The cells were then returned to the incubator. […] The cells from each well on the culture dishes were removed by trypsin treatment and counted with a Coulter counter. After a period of time, the number of cells in each well was determined. The data can be presented as a curve showing the inhibition of tumor cell growth with increasing concentrations of the test compound. […] Each of the compounds according to the present invention was a potent inhibitor of cell growth with the IC50 values being typically in the micromolar concentration range.

## Oc1cccc(C=Nn2c(S)nnc2-c2cccnc2)c1O [VIIr]
Nitric oxide synthase
  pIC50: 4.54

## Sc1nnc(-c2cccs2)n1N=CC=Cc1ccccc1 [VIIa, 4-imino-(cinnamyl)-3-mercapto-5-(2-thienyl)-4H-1,2,4-triazole]
Nitric oxide synthase
  pIC50: 4.46
other
  melting point: 206 to 206.5 °C

## CSc1nnc(C2CCCCC2)n1N=CC(Br)=Cc1ccccc1 [Compound Xi]
Nitric oxide synthase
  pIC50: 3.84

## C1=C(c2ccccc2)Sc2nnc(-c3ccccc3)n2NC1 [Va]
Nitric oxide synthase
  pIC50: 3.96
other
  melting point: 222 to 223 °C

## C1=Nn2c(Cc3ccccc3)nnc2SC(c2ccccc2)=C1 [IV (R = benzyl, R′ = H)]
Nitric oxide synthase
  pIC50: 4.28

## CN1C(C=Cc2ccccc2)Sc2nnc(-c3ccco3)n21 (stereo not drawn) [IXd]
Nitric oxide synthase
  pIC50: 4.85
PAM 212 cells
  pIC50: 4.35
other
  melting point: 128 to 129.5 °C

## COc1ccccc1C=CC=Nn1c(S)nnc1-c1cccs1 [VIIb]
Nitric oxide synthase
  pIC50: < 4.00
other
  melting point: 227 to 228 °C

## Fc1ccc(-c2nnc3n2N=C(c2ccccc2)CS3)cc1 [VIII (R = 4-F—C6H4—, R′ = phenyl)]
Nitric oxide synthase
  pIC50: < 4.00

## Brc1ccccc1-c1nnc2n1N=CC=C(c1ccccc1)S2 [IV (R = 2-Br—C6H4—, R′ = H)]
Nitric oxide synthase
  pIC50: 4.06

## O=[N+]([O-])c1ccccc1C=CC=Nn1c(S)nnc1-c1cccs1 [Compound VIIc]
Nitric oxide synthase
  pIC50: 4.92
PAM 212 cells
  pIC50: 4.22
other
  melting point: 214 to 215 °C

## Nn1c(-c2cccs2)n[nH]c1=S [III (R = 2-thienyl), 4-amino-3-mercapto-5-(2-thienyl)-(4H)-1,2,4-triazole]
Nitric oxide synthase
  pIC50: 4.11

## Cc1nnc2n1N=C(C(F)(F)F)CS2 [VIIIc]
Nitric oxide synthase
  pIC50: < 4.00
other
  melting point: 85 to 86 °C

## CC(CCCl)Sc1nnc(-c2cccs2)n1N (stereo not drawn)
other
  melting point: 196 to 197 °C

## CN1C(C=Cc2ccccc2)Sc2nnc(-c3cccs3)n21 (stereo not drawn) [IXa]
Nitric oxide synthase
  pIC50: 4.82
PAM 212 cells
  pIC50: 4.36
other
  melting point: 250 to 252 °C

## Cc1nnc2n1N(C)C(C=Cc1ccccc1)S2 (stereo not drawn) [IXf]
Nitric oxide synthase
  pIC50: 4.77
PAM 212 cells
  pIC50: < 4.00
other
  melting point: 125 to 126 °C

## CC(CC(=O)Oc1ccccc1)Sc1nnc(-c2cccs2)n1N (stereo not drawn) [VIb]
Nitric oxide synthase
  pIC50: < 4.00
other
  melting point: 109.5 to 111 °C

## C1=Nn2c(nnc2-c2cccs2)SC(c2ccccc2)=C1 [IVc]
Nitric oxide synthase
  pIC50: 4.32
other
  melting point: 164 to 166 °C

## Fc1ccc(-c2nnc3n2N=C(C(F)(F)F)CS3)cc1
Nitric oxide synthase
  pIC50: 4.52

## Nn1c(S)nnc1-c1ccc(F)cc1 [III (R = 4-F—C6H4—)]
Nitric oxide synthase
  pIC50: 4.01

## Fc1ccc(-c2nnc3n2N=CC=C(c2ccccc2)S3)cc1 [IVb]
Nitric oxide synthase
  pIC50: 4.68
other
  melting point: 217 to 219 °C

## COC(=O)CCSc1nnc(C)n1N [VI (R = methyl, R′ = —CH2—CH2—COOMe)]
Nitric oxide synthase
  pIC50: 3.77

From patent US20020032325A1, “4-amino-3-mercapto-1,2,4-triazoles” (priority 1999, published 2002)
